Experimental data as given in patent publication US20230303569A1, “HETEROCYCLIC COMPOUNDS AS THERAPEUTIC AGENTS” (Arisan Therapeutics Inc., priority 2021, published 2023).
Read-outs that look alike come from different tables or passages of the source.

Tests used:
Type in all cases: cell-based
[1] = biological target: T1, human Nav1.5 (pulse 2, state-dependent inhibition) (Homo sapiens, UniProt Q14524); experiment: Two pulse assay protocol, Nav1.5; settings: HEK293 cells stably expressing human Nav1.5, pH 7.3, peak current, pulse 2 (state-dependent), read-out: percent inhibition hNav1.5, Pulse 2 (5 uM)
T1 construct: host or cells: HEK293
Procedure: (§1) In vitro Na+ Current Inhibition Assays were performed by Eurofins Discovery (St Charles, MO). All compound functional activity determinations were determined through electrophysiological analyses of Na+ currents in HEK293 cells expressing a stably transfected Na+ channel (human Nav1.1, 1.2, 1.3, 1.5, 1.6, 1.7, or 1.8). After harvesting with Accutase cells are maintained in serum free medium at room temperature prior to electrophysiological recording utilizing the QPatch HT automated whole-cell patch-clamp platform (Sophion Bioscience, Woburn MA). Stock solution aliquots of the test compound are prepared in DMSO at 300× the final assay concentrations, and stored at −20° C. until the day of assay. On the day of the assay, an aliquot of the stock solution is thawed and diluted into external solution (137 mM NaCl, 4 mM KCl, 1 mM MgCl2, 1.8 mM CaCl2, 10 mM HEPES, 10 mM Glucose (pH 7.3, titrated with 10M NaOH) to make final test concentrations. A final concentration of 0.33% DMSO is maintained for each concentration of the assay compounds. Internal solution for recordings of Na+ consist consists of 100 mM CsF, 45 mM CsCl, 5 mM NaCl, 10 mM HEPES, 5 mM EGTA (pH 7.3, titrated with 1M CsOH).
(§2) Two pulse assay protocol for human Nav1.1, 1.2, 1.3, 1.5, 1.6, 1.7, and 1.8 channels. Mammalian cultured cells expressing the indicated human Nav1.1, 1.2, 1.3, 1.5, 1.6, 1.7 or 1.8 channels were assayed using the The QPatch HT (Sophion Bioscience, Woburn MA) automated system with an intracellular solution (mM) of 100 CsF, 45 CsCl, 5 NaCl, 10 HEPES, 5 EGTA (pH 7.3, titrated with 1M CsOH) and extracellular solution (mM) of 137 NaCl, 4 KCl, 1 MgCl2, 1.8 CaCl2, 10 HEPES, 10 Glucose (pH 7.3, titrated with 10M NaOH). Onset and steady state block of the sodium channel was measured using a pulse pattern, repeated every 20 seconds (s) from a holding potential of −120 mV for 100 ms, and then pulsed to 0 mV for 500 ms to inactivate the Na channels and facilitate inactivated state-dependent binding of the test compounds. The cell membranes were then stepped back to −120 mV for 10 ms to recover from inactivation into resting or closed state (channels with test compound bound to them will not recover from inactivation and will not open) before stepping to 0 mV for 50 ms (pulse 2) to measure Na channels that are available to open. Peak current was measured during the step to 0 mV at pulse 1 and 2 to measure tonic and state-dependent inhibition. Compound activities were assessed by dividing post current amplitude (at the end of each five (5) minute compound application) by the vehicle control amplitude and the mean calculated for each compound concentration. Tetracaine was used as a positive control and was tested concurrently with the test compounds. Current amplitudes in excess of 200 pA at the control stage were analyzed. The amplitude of the current was calculated by measuring the difference between the peak inward current on stepping to 0 mV (i.e. peak of the current) and remaining current at the end of the step. The current was assessed in vehicle control conditions and then at the end of each five (5) minute compound application.

[2] = biological target: T2, human Nav1.5 (pulse 1, tonic inhibition) (Homo sapiens, UniProt Q14524); experiment: Two pulse assay protocol, Nav1.5; settings: HEK293 cells stably expressing human Nav1.5, pH 7.3, peak current, pulse 1 (tonic), read-out: percent inhibition hNav1.5, Pulse 1 (5 uM)
T2 construct: host or cells: HEK293
Procedure: as §1, §2

[3] = biological target: T3, human Nav1.8 (Homo sapiens, UniProt Q9Y5Y9); experiment: Two pulse assay protocol, Nav1.8; settings: peak current
T3 construct: host or cells: HEK293
Procedure: as §1, §2

[4] = biological target: T4, human Nav1.7 (Homo sapiens, UniProt Q15858); experiment: Two pulse assay protocol, Nav1.7; settings: peak current
T4 construct: host or cells: HEK293
T4 sequence (Q15858 whole entry): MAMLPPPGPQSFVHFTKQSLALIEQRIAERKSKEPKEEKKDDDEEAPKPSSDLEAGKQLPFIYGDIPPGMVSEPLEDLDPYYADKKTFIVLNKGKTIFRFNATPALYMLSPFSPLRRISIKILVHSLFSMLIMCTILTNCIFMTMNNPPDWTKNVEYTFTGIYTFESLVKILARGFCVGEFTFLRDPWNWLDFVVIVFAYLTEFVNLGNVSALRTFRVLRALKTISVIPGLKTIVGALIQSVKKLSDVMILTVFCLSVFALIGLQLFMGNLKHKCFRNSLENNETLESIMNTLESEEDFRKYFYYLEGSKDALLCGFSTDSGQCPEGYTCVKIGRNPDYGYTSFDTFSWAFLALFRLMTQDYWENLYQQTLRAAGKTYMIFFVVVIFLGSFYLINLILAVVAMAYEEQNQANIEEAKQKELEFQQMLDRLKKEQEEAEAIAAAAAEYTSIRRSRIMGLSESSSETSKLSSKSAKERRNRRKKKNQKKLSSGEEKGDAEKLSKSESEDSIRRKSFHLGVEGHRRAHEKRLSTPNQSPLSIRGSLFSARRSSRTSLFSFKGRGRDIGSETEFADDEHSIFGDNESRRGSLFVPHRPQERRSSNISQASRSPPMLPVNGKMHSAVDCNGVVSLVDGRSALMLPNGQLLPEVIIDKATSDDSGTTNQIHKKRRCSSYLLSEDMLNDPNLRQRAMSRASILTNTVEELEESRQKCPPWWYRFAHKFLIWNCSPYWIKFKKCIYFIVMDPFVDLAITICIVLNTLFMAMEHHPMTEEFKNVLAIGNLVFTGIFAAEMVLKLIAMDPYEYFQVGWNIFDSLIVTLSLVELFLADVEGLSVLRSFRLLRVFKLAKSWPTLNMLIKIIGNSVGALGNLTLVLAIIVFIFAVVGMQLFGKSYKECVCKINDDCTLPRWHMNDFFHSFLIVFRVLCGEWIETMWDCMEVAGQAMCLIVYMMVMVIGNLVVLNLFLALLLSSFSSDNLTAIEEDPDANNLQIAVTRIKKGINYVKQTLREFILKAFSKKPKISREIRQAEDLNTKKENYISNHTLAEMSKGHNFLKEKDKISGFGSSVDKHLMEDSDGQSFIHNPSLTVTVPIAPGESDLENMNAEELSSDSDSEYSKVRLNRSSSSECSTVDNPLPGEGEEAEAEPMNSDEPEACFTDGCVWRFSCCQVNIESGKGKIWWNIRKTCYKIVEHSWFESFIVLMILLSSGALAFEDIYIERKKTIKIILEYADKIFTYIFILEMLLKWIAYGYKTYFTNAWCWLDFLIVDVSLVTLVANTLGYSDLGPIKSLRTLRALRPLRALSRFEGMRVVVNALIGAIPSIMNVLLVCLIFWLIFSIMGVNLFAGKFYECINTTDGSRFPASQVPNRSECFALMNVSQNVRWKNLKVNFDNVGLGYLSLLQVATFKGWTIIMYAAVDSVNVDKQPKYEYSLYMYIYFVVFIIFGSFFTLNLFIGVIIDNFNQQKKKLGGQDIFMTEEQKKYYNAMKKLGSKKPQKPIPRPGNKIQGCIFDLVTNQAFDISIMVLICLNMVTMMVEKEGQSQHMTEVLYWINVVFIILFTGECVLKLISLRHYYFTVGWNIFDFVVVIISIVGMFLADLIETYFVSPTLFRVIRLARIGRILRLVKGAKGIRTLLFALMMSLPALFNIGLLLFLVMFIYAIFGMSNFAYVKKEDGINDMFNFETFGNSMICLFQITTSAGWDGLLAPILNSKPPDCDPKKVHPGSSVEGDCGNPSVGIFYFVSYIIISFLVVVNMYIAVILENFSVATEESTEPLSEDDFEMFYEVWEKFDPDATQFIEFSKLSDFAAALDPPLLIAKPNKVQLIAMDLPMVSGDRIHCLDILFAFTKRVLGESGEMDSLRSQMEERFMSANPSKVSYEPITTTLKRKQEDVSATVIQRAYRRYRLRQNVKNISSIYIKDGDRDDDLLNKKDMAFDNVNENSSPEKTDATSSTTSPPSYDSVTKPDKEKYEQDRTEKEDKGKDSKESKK
Procedure: as §1, §2

[5] = biological target: T5, human Nav1.2 (Homo sapiens, UniProt Q99250); experiment: Two pulse assay protocol, Nav1.2; settings: peak current
T5 construct: host or cells: HEK293
Procedure: as §1, §2

[6] = biological target: T6, human Nav1.6 (Homo sapiens, UniProt Q9UQD0); experiment: Two pulse assay protocol, Nav1.6; settings: 5 uM, peak current
T6 construct: host or cells: HEK293
T6 sequence (Q9UQD0 whole entry): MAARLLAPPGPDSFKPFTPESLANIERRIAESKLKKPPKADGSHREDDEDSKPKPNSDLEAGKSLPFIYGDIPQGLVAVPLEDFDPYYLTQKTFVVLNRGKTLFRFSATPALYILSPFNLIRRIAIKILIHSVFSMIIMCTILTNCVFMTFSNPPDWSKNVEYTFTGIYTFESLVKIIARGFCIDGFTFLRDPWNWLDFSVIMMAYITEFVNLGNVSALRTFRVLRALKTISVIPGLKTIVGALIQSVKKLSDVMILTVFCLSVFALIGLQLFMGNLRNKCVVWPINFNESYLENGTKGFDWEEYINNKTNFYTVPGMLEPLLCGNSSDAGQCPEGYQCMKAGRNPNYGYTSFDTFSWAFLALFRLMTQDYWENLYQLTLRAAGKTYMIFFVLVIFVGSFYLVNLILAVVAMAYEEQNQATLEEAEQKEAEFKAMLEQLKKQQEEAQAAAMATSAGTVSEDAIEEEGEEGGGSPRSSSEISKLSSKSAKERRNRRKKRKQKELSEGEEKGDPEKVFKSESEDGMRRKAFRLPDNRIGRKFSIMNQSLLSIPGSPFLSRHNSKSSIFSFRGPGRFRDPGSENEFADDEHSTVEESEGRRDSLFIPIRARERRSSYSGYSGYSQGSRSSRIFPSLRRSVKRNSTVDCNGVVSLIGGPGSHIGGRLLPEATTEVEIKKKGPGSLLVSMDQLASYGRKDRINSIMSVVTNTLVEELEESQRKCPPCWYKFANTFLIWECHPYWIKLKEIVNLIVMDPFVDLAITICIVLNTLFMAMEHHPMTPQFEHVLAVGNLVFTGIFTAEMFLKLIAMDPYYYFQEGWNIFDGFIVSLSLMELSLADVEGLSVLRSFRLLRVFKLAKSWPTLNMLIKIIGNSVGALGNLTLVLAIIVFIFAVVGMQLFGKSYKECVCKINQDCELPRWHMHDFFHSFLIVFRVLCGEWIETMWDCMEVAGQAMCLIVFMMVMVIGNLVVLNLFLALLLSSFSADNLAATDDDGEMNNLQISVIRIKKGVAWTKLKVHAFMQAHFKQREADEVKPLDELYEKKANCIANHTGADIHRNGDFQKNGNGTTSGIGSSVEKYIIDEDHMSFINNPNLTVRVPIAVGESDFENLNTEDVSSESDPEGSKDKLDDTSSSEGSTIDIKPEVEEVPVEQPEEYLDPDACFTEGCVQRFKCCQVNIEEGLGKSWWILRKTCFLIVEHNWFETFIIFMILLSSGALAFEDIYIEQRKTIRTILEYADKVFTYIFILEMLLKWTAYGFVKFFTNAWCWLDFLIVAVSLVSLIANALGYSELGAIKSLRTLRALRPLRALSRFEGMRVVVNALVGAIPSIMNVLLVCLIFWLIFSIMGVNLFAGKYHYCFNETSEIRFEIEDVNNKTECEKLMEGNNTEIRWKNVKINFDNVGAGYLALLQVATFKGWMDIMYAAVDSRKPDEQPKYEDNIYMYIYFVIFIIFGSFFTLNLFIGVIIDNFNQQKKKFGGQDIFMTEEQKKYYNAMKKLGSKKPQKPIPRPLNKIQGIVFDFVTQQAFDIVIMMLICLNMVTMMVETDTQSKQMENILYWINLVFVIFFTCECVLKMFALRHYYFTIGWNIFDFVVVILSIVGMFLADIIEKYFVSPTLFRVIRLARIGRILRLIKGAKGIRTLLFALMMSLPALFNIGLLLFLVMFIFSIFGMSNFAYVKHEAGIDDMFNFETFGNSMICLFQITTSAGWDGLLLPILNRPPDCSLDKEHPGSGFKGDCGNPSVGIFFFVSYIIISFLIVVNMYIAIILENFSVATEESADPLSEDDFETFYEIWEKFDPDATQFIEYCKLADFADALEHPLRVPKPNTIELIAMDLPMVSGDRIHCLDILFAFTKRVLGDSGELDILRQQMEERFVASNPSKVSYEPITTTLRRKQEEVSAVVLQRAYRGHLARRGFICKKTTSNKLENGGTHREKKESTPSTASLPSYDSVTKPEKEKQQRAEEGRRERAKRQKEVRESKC
Procedure: as §1, §2

[7] = pulse 1 (tonic), read-out: percent inhibition hNav1.8, Pulse 1 (5 uM)
[8] = pulse 2 (state-dependent), read-out: percent inhibition hNav1.8, Pulse 2 (5 uM)
[9] = pulse 1 (tonic), read-out: percent inhibition hNav1.7, Pulse 1 (5 uM)
[10] = pulse 2 (state-dependent), read-out: percent inhibition hNav1.7, Pulse 2 (5 uM)
[11] = pulse 1 (tonic), read-out: percent inhibition hNav1.2, Pulse 1 (5 uM)
[12] = pulse 2 (state-dependent), read-out: percent inhibition hNav1.2, Pulse 2 (5 uM)
[13] = pulse 1 (tonic), read-out: percent inhibition hNav1.6, Pulse 1 (5 uM)
[14] = pulse 2 (state-dependent), read-out: percent inhibition hNav1.6, Pulse 2 (5 uM)

Compound	inhibition at 5 min, 5 µM [1]	inhibition at 5 min, 5 µM [2]	inhibition at 5 µM [3, 7]	inhibition at 5 µM [3, 8]	inhibition at 5 µM [4, 9]	inhibition at 5 µM [4, 10]	inhibition at 5 µM [5, 11]	inhibition at 5 µM [5, 12]	inhibition at 5 µM [6, 13]	inhibition at 5 µM [6, 14]
CS(=O)(=O)NC(=O)c1ccn2c(-c3ccc(OC(F)(F)F)cc3)cnc2c1 [Example C66, N-(methylsulfonyl)-3-(4-(trifluoromethoxy)phenyl)imidazo[1,2-a]pyridine-7-carboxamide]	< 50%	< 50%	< 50%	< 50%	< 50%	< 50%	–	–	–	–
CC(C)Oc1ccc(-c2ccc3ncc(-c4ccc(Oc5ccccc5)cc4)n3c2)cc1 [Example C72, 6-(4-isopropoxyphenyl)-3-(4-phenoxyphenyl)imidazo[1,2-a]pyridine]	50 to 90%	< 50%	–	–	< 50%	> 90%	< 50%	> 90%	< 50%	> 90%
CC(C)Oc1ccc(-c2ccc3ncc(-c4ccc(C(C)C)cc4)n3c2)cc1 [Example C73, 6-(4-isopropoxyphenyl)-3-(4-isopropylphenyl)imidazo[1,2-a]pyridine]	> 90%	< 50%	–	–	< 50%	50 to 90%	< 50%	> 90%	< 50%	> 90%
CS(=O)(=O)NC(=O)c1cc2ncc(-c3ccc(OC(F)(F)F)cc3)n2cc1-c1ccccc1 [Example C68, N-(methylsulfonyl)-6-phenyl-3-(4-(trifluoromethoxy)phenyl)imidazo[1,2-a]pyridine-7-carboxamide]	< 50%	< 50%	< 50%	< 50%	< 50%	< 50%	–	–	–	–
